Measurements: US20060281806A1, “Treatment and inhibition of disease conditions using flexible heteroarotinoids” (priority 2005, published 2006)
Entries after “also recorded” stand apart in the source; their conditions may differ.

Experiments:
[1] = tested on: ovarian carcinoma organotypic cultures; test: Organotypic culture model of ovarian tumors; type: cell-based, human; conditions: 1 μM retinoid in media; 3, 7 or 14 days
Description: FIG. 17. Retinoid effects on ovarian carcinoma organotypic cultures. Organotypic cultures of OVCAR-3 (A, B, E, F, I and J), Caov-3 (C and G), SK-OV-3 (D and H), and O2 (K and L) were grown in the absence (−, top row and K) or presence (+, middle row and I, J and L) of retinoid HetA4 at a concentration of 1 μM in the media. All sections were stained with H&E except for I, which was stained with PAS to detect glycoproteins and glandular differentiantion, and J, which was stained with the TUNEL assay to detect apoptosis. All magnifications are 40×.
To test our hypotheses, we evaluated the effects of clinically achievable concentrations of 4-HPR and Flex-Hets on growth, differentiation and apoptosis in ovarian tissue. A series of compounds with a variety of receptor activation profiles were evaluated. In order to evaluate therapeutic effects, we developed an organotypic culture model of ovarian tumors by growing established cell lines and primary cultures inside collagen gels. Monolayer cultures of cells are not accurate representations of in vivo tissue because they lack the types of interactions that cells have with other cells and with the extracellular matrix in vivo. These interactions are known to influence gene expression and thus the constitution and behavior of cells. In our organotypic model, the growth of tumor cells inside the collagen allows a representation of tumors that have invaded stromal tissue. In the presence of fibroblasts, established cell lines and primary cultures of ovarian cancer formed colonies inside the collagen, while normal or benign ovarian epithelial cells remained as single cells inside the collagen. Human ovarian cancer cell lines (OVCAR-3, Caov-3, SK-OV-3, A2780, UCI 101) and primary human cultures (borderline ovarian tumor (O1), serous papillary tumor (O2), benign ovarian cyst (O3)) were cultured inside and on top of a collagen gel seeded with 3T3 fibroblasts for one week. After further incubation in the presence or absence of 1 μM retinoid (media concentration) for 3, 7 or 14 days, cultures were fixed and sectioned for immunohistochemical analysis.

[2] = women after breast cancer surgery; 200 mg per day for five years versus placebo; cited from earlier work
a variety of cell lines = conditions: cited from earlier work
OVCAR-3 xenograft tumors = test: OVCAR-3 xenograft tumor animal model, tumor growth; type: in vivo, mouse; conditions: 10 mg/kg/day by gavage, 5 days/week, 4 weeks; t-test on day 29
Description: Groups of 5 mice bearing OVCAR-3 xenografted tumors were gavaged daily with the indicated drugs in sesame oil (▪ closed square) or with sesame oil alone (∘ open circle). Tumor volumes were measured in 3 dimensions with calipers weekly. Each data point represents the average and standard error of the tumor volumes on the indicated treatment day relative to the tumor volume on day zero. Nu/nu mice were injected subcutaneously with one million OVCAR-3 cells and arbitrarily divided into five groups of six mice each. After three weeks of tumor growth, the animals were gavaged with sesame oil, 10 mg/kg/day 4-HPR, or the indicated Het five times per week for four weeks and the tumors were measured once per week. The tumor sizes were averaged and divided by the average size for each group on the day that treatment was initiated (day 0).
The OVCAR-3 cultures were maintained in RPMI media supplemented with 10% fetal bovine serum. All animal experimentation described in this manuscript was conducted in accord with accepted standards of humane animal care. Twenty-five female NU/NU CD-1 female mice (Charles Rivers Laboratories) were housed in a laminar flow room under sterile conditions at 83-85° F. The mice were quarantined for one week prior to the beginning of the study and were allowed access to autoclaved food (Purina 5001 mouse/rat sterilizable diet, St. Louis, Mo.) and water ad libitum. OVCAR-3 cells in log phase growth were harvested by trypsinization, resuspended in RPMI culture medium, and centrifuged at 3,000 rpm for 10 min. The pellets were resuspended in RPMI culture medium at a concentration of 7×10^6 cells/ml before implantation into mice. Animals were injected with 3.5×10^6 cells into the right scapular region with a 24-gauge needle/1 cc tuberculin syringe. Twenty-four hours after tumor implantation, animals were randomized into 5 groups of 5 animals each.
The Hets SHet50, SHetA2 and SHetA4 were synthesized and their receptor specificity determined as previously described (17,19). The 4-HPR compound was a gift from R.W. Johnson Pharmaceutical Research Institute, Raritan, N.J. All retinoids were dissolved in super refined sesame oil (Croda, Inc., Parsippany, N.J.) and stored at −80° C. Since the retinoids are light sensitive, all manipulations involving retinoids were performed under subdued lighting. […] Tumors were measured with calipers weekly, and tumor volumes were calculated using the formula: volume=length×width×height. Tumor growth was determined by the dividing the volume of the tumor at each weekly measurement by the volume on the first day of treatment. Animal weights and clinical signs of overall health status and cutaneous toxicities were recorded weekly.

[3] = Alanine aminotransferase (ALT) activity in plasma of mice; type: in vivo, mouse; conditions: end of treatment, 10 mg/kg/day by gavage
Description: At the end of the treatment period, blood was drawn from each animal. Plasma was separated by centrifugation and stored at −70° C. The activity of ALT was determined in aliquots of plasma by standard spectrophotometric enzymatic techniques which are based on the reduction of pyruvate by lactate dehydrogenase (28). The method measures NADH disappearance with time of incubation at 37° C. The activities are expressed as mm/L/min. Two different amounts of plasma were used in each assay to assure measurement of the maximum rate.

[4] = tested on: dorsal skin of female Skh hairless mice; test: Topical irritancy; type: in vivo; conditions: mouse, in vivo
Description: Female Skh hairless mice, 6-8 weeks old, were treated topically on the dorsal skin for 4 days over a 2-log concentration dose range with various compounds. Retinoic acid receptor-Hets were evaluated in A, while retinoic acid receptor-independent Flex-Hets were evaluated in B. Daily flaking and abrasion scores were combined to calculate a single cutaneous toxicity score for each mouse. Each treatment group consisted of 4 mice, and group averages were used to plot cutaneous toxicity against doses of the compounds.
Topical irritancy was evaluated according to published procedures (29). Briefly, female Skh hairless mice, 6-8 weeks old, were treated topically on the dorsal skin for 4 days over a 2-log concentration dose range with various compounds. Daily flaking and abrasion scores were combined to calculate a single cutaneous toxicity score for each mouse. Each treatment group consists of 4 mice, and group averages are used to plot cutaneous toxicity against dose of the retinoid compound.

[5] = tested on: SiHa human cervical cell line; test: In vitro cytotoxicity (SRB growth inhibition) assay, SiHa; type: cell-based; set-up: dose or concentration left out as unconfirmed; conditions: 72 h
Description: (§1) The SHetA2, SHetA3, SHetA4, SHet50 and 9-cis-RA compounds were evaluated in 4 cervical carcinoma cell lines. The SiHa, CC-1 and C33a human cervical cell lines were maintained in Minimal Essential Media (MEM) containing Earle's salts and L-glutamine supplemented with nonessential amino acids, 1% sodium pyruvate, 10% fetal bovine serum (FBS) and antibiotic/antimycotic. The HT-3 cervical carcinoma cell line was cultured in McCoy's 5a medium supplemented with 10% FBS and antibiotic/antimycotic. Cells were inoculated into 96 well microtiter plates at densities of 1000 cells/well and incubated for 24 h prior to addition of drugs. Drugs were dissolved in dimethyl sulfoxide (DMSO) and diluted in complete medium, prior to addition to triplicate culture wells to achieve final concentrations of […]. Following drug addition, the plates were incubated for 72 h. The assay was terminated by the addition of cold TCA and the cells were stained with 0.4% sulforhodamine B (SRB) in 1% acetic acid. Bound stain was subsequently solubilized with 10 mM trizma base, and the absorbance was read on an automated plate reader at a wavelength of 560 nm. Growth inhibition was determined by dividing the average Optical Density (OD) of the triplicated treated cultures by the average OD of the triplicate control cultures treated with DMSO solvent only. This ratio was converted into a percentage by multiplying by 100. The potency (concentration required to induce half of the maximal activity—GI50) were derived from dose-response graphs generated with results from 3 to 5 individual experiments using GraphPad Software.

[6] = tested on: CC-1 human cervical cell line; test: In vitro cytotoxicity (SRB growth inhibition) assay, CC-1; type: cell-based; set-up: dose or concentration left out as unconfirmed; conditions: 72 h
Description: as §1

[7] = tested on: C33a human cervical cell line; test: In vitro cytotoxicity (SRB growth inhibition) assay, C33a; type: cell-based; set-up: dose or concentration left out as unconfirmed; conditions: 72 h
Description: as §1

[8] = tested on: human polycystic kidney disease cells; test: 3-D gel culture model of polycystic kidney disease; type: cell-based; conditions: 4μM, 3 weeks
Description: FIG. 21. Effects of Flex-Hets on formation of cysts in cultured polycystic kidney disease cells. A primary culture of polycystic kidney cells were grown inside a mixture of collagen I and matrigel and treated with prostaglandin E2 to induce cyst formation. Parallel cultures were treated with 10 micromolar SHetA3 and SHetA4.
The 3-D model of the PKD was developed as described here. Single-cell suspensions of the PCKD cell lines was re-suspended in a 4° C. solution mixture containing rat tail collagen I (Collaborative Biomedical Products, Bedford, Mass.), matrigel (Becton Dickinson) and MEM. The suspension was poured into Falcon cell culture inserts with transparent membranes containing 0.4 μm pores (Becton Dickinson, Franklin Lakes, N.J.) and placed at 37° C. Treatment of cultures was initiated after 1 day of growth and replenished with medium once in every two days. Drugs (Flex-Hets at 4 μM Conc.) and hormones (PGE2 at 25 ng/ml) were administered into the medium surrounding the insert. Untreated control cultures were grown in the same conditions as that of the treated cultures. Drug treatment was carried out for 3 weeks before their effects on growth and inhibition were evaluated.

[9] = tested on: HT-3 cervical carcinoma cell line; test: In vitro cytotoxicity (SRB growth inhibition) assay, HT-3; type: cell-based, human; set-up: dose or concentration left out as unconfirmed; conditions: 72 h
Description: as §1

[10] = biological assays of efficacy; cited from earlier work

| Compound | induction of apoptosis (TUNEL) in organotypic cultures [1] | ovarian cancers developed [2] | concentration inducing differentiation (receptor-dependent) (a variety of cell lines) | growth of xenograft tumors versus sesame oil control (OVCAR-3 xenograft tumors) | ALT Activity [3] | topical irritancy (cutaneous toxicity score) [4] | Efficacy: percent growth inhibition relative to the untreated control [5] | Efficacy: percent growth inhibition relative to the untreated control [6] | Efficacy: percent growth inhibition relative to the untreated control [7] | formation of branched tubular structures (differentiated phenotype) [8] | cyst formation ([8]; PGE2 at 25 ng/ml) | Efficacy: percent growth inhibition relative to the untreated control [9] | potency relative to RA [10] |
| --- | --- | --- | --- | --- | --- | --- | --- | --- | --- | --- | --- | --- | --- |
| CC1=C(/C=C/C(C)=C/C=C/C(C)=C/C(=O)Nc2ccc(O)cc2)C(C)(C)CCC1 [4-HPR, N-(4-hydroxyphenyl) retinamide] | Apoptosis was induced | statistically significantly fewer ovarian cancers | 1 µM | significantly inhibited the growth; also recorded: significantly less | 149.7 ± 140.9 mm/liter/min | – | – | – | – | – | – | – | – |
| CCOC(=O)c1ccc(NC(=O)Nc2ccc3c(c2)C(C)(C)CC(C)(C)S3)cc1 [SHetA4] | Apoptosis was induced | – | – | significantly less | – | did not induce topical irritancy | 67% | 59% | 85% | induced the formation of several branched tubular structures | completely eliminated cyst formation | 76% | – |
| C/C(=C\c1ccc(C(=O)O)cc1)c1ccc2c(c1)C(C)(C)CCC2(C)C [TTNPB] | – | – | – | – | – | – | – | – | – | – | – | – | 10 fold |
